Data taken from article PMC2910749 (Chembiochem : a European journal of chemical biology, 2008).

Biological target: T1, human cytosolic β-glucosidase (Homo sapiens, UniProt Q9H227)
T1 sequence (Q9H227 1-469): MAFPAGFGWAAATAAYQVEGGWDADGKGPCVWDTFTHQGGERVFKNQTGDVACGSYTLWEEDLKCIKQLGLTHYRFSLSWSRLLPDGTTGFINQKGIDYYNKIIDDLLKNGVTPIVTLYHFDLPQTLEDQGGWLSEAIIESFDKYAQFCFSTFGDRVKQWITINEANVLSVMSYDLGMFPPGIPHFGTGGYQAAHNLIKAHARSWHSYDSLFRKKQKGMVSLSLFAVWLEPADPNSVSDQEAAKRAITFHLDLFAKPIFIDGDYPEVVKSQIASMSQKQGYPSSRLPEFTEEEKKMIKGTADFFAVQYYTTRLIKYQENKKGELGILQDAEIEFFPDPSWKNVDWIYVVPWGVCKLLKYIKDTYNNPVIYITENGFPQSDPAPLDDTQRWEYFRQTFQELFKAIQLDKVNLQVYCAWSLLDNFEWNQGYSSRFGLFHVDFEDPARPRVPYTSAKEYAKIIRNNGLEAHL
Assay: Glycosidase specificity: cytosolic
Assay type: biochemical

- inhibition of neutral β-glucosidase: virtually non-inhibitory
Compound: O=C(Nc1ccncc1)c1ccc(Oc2cc(Cl)cc(Cl)c2)o1 [compound 2, 5-(3,5-dichlorophenoxy)-N-(4-pyridinyl)-2-furamide]
